Assay results taken from paper PMC8311653, “Design, Synthesis, In Vitro and In Vivo Characterization of Selective NKCC1 Inhibitors for the Treatment of Core Symptoms in Down Syndrome” (Journal of Medicinal Chemistry, 2021).
In brackets after ≈: the same amount, converted by molar mass.

Columns and labels:
NKCC1 = target: T1, NKCC1 (Mus musculus, UniProt P55012); test: Ca2+ influx assay in immature primary neuronal cultures (indirect measure of NKCC1 inhibition); type: cell-based; conditions: cultured neurons, 3 DIV
T1 construct: primary neuronal cultures of dissociated hippocampal neurons were prepared from E18 C57BL/6J mice; endogenous in cells; host or cells: primary hippocampal neurons from E18 C57BL/6J mice, 3 DIV
T1 sequence (P55012 1-1205): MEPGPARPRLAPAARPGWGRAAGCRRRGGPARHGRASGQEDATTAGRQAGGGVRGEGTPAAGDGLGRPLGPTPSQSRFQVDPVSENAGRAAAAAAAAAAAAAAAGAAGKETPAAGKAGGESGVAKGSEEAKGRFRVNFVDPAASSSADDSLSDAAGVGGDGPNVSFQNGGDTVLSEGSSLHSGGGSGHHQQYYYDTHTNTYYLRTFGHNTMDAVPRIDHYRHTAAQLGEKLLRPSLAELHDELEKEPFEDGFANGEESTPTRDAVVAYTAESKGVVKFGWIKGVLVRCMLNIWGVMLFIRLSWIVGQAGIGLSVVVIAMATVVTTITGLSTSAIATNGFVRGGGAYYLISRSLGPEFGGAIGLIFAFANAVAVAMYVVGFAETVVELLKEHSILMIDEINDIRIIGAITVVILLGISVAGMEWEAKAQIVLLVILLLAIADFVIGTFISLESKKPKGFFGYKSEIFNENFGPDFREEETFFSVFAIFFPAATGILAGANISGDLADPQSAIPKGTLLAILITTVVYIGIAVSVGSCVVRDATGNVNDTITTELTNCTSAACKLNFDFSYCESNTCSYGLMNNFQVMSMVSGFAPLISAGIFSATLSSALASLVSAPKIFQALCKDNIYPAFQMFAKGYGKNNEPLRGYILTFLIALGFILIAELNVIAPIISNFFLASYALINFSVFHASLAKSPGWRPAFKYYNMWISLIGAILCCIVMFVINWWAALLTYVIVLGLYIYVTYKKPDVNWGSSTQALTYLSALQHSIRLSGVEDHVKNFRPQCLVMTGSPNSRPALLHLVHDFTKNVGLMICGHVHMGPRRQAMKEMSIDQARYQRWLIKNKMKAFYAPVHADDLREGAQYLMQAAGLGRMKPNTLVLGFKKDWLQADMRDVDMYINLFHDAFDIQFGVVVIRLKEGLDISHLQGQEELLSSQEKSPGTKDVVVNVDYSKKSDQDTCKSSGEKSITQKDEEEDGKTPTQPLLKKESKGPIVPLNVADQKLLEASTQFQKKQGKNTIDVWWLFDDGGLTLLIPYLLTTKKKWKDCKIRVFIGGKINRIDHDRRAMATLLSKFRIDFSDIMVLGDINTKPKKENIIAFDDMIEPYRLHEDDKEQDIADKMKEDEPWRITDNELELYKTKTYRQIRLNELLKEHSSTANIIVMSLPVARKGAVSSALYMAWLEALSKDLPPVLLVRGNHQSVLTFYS
Method: To perform the Ca^2+-influx assay, primary neuronal cultures of dissociated hippocampal neurons were prepared from E18 C57BL/6J mice (Charles River) as previously described[56] and plated in 96-well black-walled, clear-bottomed plates coated with poly-L-lysine (Sigma; 0.1 mg/mL in 100 mM borate buffer, pH 8.5) at a density of 30,000 cells per well. Neurons were maintained in neurobasal medium supplemented with 2% B-27 supplement, 0.5 mM glutamine, 50 U/mL of penicillin, and 50 μg/mL of streptomycin (all from Gibco). The cells were incubated at 37 °C and 5% CO2 until DIV 3 for the Ca^2+ influx assay.
At 3 DIVs, neurons were loaded with 2.5 μM of the Ca^2+-sensitive day Fluo4-AM (Invitrogen) in extracellular solution (145 mM NaCl, 5 mM KCl, 10 mM HEPES, 5.55 mM glucose, 1 mM MgCl2, and 2 mM CaCl2, pH 7.4). After 15 min, cells were washed twice with extracellular solutions and treated with bumetanide (as a positive control), DMSO (as a negative control), or each of our compounds at 10 μM or 100 μM, in extracellular solution for 15 min. Plates were then loaded onto a Spark (Tecan) multiplate reader equipped with an automatic liquid injector system, and Fluo4 fluorescence was recorded with excitation at 485 nm and emission at 535 nm. For each well, fluorescence was first recorded for 20 s of the baseline and for 20 s after delivery of GABA (100 μM). To evaluate neuronal viability, fluorescence was recorded for an additional 20 s after delivery of a depolarizing KCl stimulus (90 mM final concentration in wells). To represent the fluorescent traces in time, we normalized the fluorescence value for each time point to the average of the fluorescence value for the first 20 s of the baseline (ΔF/F0). To quantify the average effects as represented by the bar plots, we measured the maximum peak increase in ΔF/F0 fluorescence upon GABA application normalized over the maximum peak increase in ΔF/F0 fluorescence upon KCl application. We then presented in the figures all the data as a percentage of the fluorescence increase versus the value of the control DMSO.

[1] = Aqueous kinetic solubility in PBS pH 7.4; type: physicochemical; conditions: phosphate buffered saline (PBS); aqueous kinetic solubility from 10 mM DMSO solution in PBS pH 7.4; target concentration 250 μM (final DMSO 2.5%)
Method: 1. Aqueous kinetic solubility.
30 µL aliquots of 10 mM DMSO stock solution of the test compound were incubated in Phosphate
Buffered Saline (PBS) at pH 7.4 at 25°C for 24h. After centrifugation the dissolved compound in the
supernatant was quantified by LC-MS/MS.
Aqueous kinetic solubility was determined by UV quantification at
215 nm. […]

[2] = In vitro metabolic stability in mouse liver microsomes; conditions: tissue homogenate, pH 7.4
Method: 1. Aqueous kinetic solubility. […]
3. In vitro mouse microsomial stability. […]
microsomes (Sekisui Xenotech, LCC), 0.1M Tris-HCl buffer (pH 7.4), and 10% DMSO. The final […]
After pre-incubation, the cofactors (NADPH, G6P, G6PDH, MgCl2 pre-dissolved in 0.1M Tris-HCl) were added to the incubation mixture and the incubation was continued at 37 °C for 1h. At each time point (0, 5, 15, 30, 60 min), 30µL of incubation mixture was diluted with 200 µL cold acetonitile spiked with 200 nM of warfarin as internal standard, followed by centrifugation at 3500 g for 30 min. The supernatant was further diluted with H2O (1:1) for analysis.
An aliquot of 200 µl of the supernatant was removed, and the concentration of the test compound was […]
quantified by LC-MS/MS. The percentage of the test compound remaining at each time point relative […]
to t=0 was calculated. The half-lives (t½) were determined by a one-phase decay equation using a […]
non-linear regression of compound concentration vs time.

[3] = In vitro mouse plasma stability; type: in vitro ADME; conditions: mouse plasma at 37 °C; incubated at 5 μM (final DMSO 0.1%); read-out: t1/2 plasma

Row | Compound | inhibition at 10 µM (NKCC1) [%] | inhibition at 100 µM (NKCC1; 100 μM) [%] | solubility at 24 h [1] [µM] | half-life at 5 μM [2] [h] | half-life at 5 μM [3] [h] | Inhibition 100 μM Ca2+ influx (%) (NKCC1; 100 μM)
1 | CNS(=O)(=O)c1cc(C(=O)O)ccc1NCCCCCCCC(F)(F)F [Compound 32, 3-(-N,N-Methylsulfamoyl)-4-(8,8,8-trifluorooctylamino)benzoic Acid] | 9.3 ± 1.9 | 40.4 ± 4.8 | 242 (≈ 95.9 µg/mL) | > 1 | > 2 | –
2 | O=C(O)c1ccc(NCCCCCCCC(F)(F)F)c(S(=O)(=O)N2CCCC2)c1 [Compound 33, 3-Pyrrolidin-1-ylsulfonyl-4-(8,8,8-trifluorooctylamino)benzoic Acid] | 31.7 ± 4.1 | 50.9 ± 6.7 | 66 (≈ 28.8 µg/mL) | > 1 | > 2 | –
3 | O=C(O)c1ccc(NCCCCCCCC(F)(F)F)c(S(=O)(=O)N2CCCCC2)c1 [Compound 34, 3-(1-Piperidylsulfonyl)-4-(8,8,8-trifluorooctylamino)benzoic Acid] | 49.2 ± 4.5 | – | 13 (≈ 5.86 µg/mL) | > 1 | > 2 | –
4 | O=C(O)c1ccc(NCCCCCCCC(F)(F)F)c(S(=O)(=O)N2CCOCC2)c1 [Compound 35, 3-Morpholinosulfonyl-4-(8,8,8-trifluorooctylamino)benzoic Acid] | 16.5 ± 2.7 | 67.8 ± 2.8 | 244 (≈ 110 µg/mL) | > 1 | > 2 | 67.7 ± 2.8
5 | O=C(O)c1ccc(NCCCCCCCC(F)(F)F)c(S(=O)(=O)NC2CCCC2)c1 [Compound 36, 3-(-N-Cyclopentylsulfamoyl)-4-(8,8,8-trifluorooctylamino)benzoic Acid] | 45.3 ± 5.3 | – | 223 (≈ 100 µg/mL) | > 1 | > 2 | –
6 | O=C(O)c1ccc(NCCCCCCCC(F)(F)F)c(S(=O)(=O)NC2CCCCC2)c1 [Compound 37, 3-(-N-Cyclohexylsulfamoyl)-4-(8,8,8-trifluorooctylamino)benzoic Acid] | 49.5 ± 4.5 | – | 9 (≈ 4.18 µg/mL) | > 1 | > 2 | –
7 | O=C(O)c1ccc(NCCCCCCCC(F)(F)F)c(S(=O)(=O)NC2CCOCC2)c1 [Compound 38, 3-(N-(Tetrahydro-2H-pyran-4-yl)sulfamoyl)-4-((8,8,8-trifluorooctyl)amino)benzoic Acid] | 7.1 ± 2.2 | 36.2 ± 3.4 | 244 (≈ 114 µg/mL) | > 1 | > 2 | –
8 | CN(C)S(=O)(=O)c1cc(C(=O)O)c(Cl)cc1NCCCCCCCC(F)(F)F [Compound 39, 2-Chloro-5-(N,N-dimethylsulfamoyl)-4-((8,8,8-trifluorooctyl)amino)benzoic Acid] | 19.4 ± 2.8 | 59.6 ± 3.1 | 241 (≈ 107 µg/mL) | > 1 | > 2 | –
9 | COc1cc(NCCCCCCCC(F)(F)F)c(S(=O)(=O)N(C)C)cc1C(=O)O [Compound 41, 5-(N,N-Dimethylsulfamoyl)-2-methoxy-4-((8,8,8-trifluorooctyl)amino)benzoic Acid] | 14.2 ± 2 | 45.7 ± 4.5 | 188 (≈ 82.8 µg/mL) | > 1 | > 2 | –
10 | CCOc1cc(NCCCCCCCC(F)(F)F)c(S(=O)(=O)N(C)C)cc1C(=O)O [Compound 42, 5-(N,N-Dimethylsulfamoyl)-2-ethoxy-4-((8,8,8-trifluorooctyl)amino)benzoic Acid] | 13.4 ± 1.1 | 46.6 ± 3.8 | 43 (≈ 19.5 µg/mL) | > 1 | > 2 | –
11 | CN(C)S(=O)(=O)c1cc(C(=O)O)c(OC2CCCC2)cc1NCCCCCCCC(F)(F)F [Compound 43, 2-(Cyclopentyloxy)-5-(N,N-dimethylsulfamoyl)-4-((8,8,8-trifluorooctyl)amino)benzoic Acid] | 27.4 ± 7 | – | 11 (≈ 5.44 µg/mL) | 0.55 | > 2 | –
